Measured values taken from PMC12749748, “Chemically-induced degradation of the endoplasmic-reticulum stress sensor IRE1 by a VHL-recruiting chimera” (Nature Communications, 2025).

How the values were obtained:
IRE1 H579A = target: T1, IRE1 H579A (Homo sapiens, UniProt O75460+P40337, H579A); test: NanoLuc signal IRE1 depletion, IRE1 H579A, HEK293T cells; format: cell-based; details: HEK-293T
T1 construct: N2731; host or cells: HEK293T
Protocol: 8 × 10^5 293T cells per well were seeded in 6-well plates (Costar, #3516) and incubated at 37 °C, 5% CO2 for 6 h. A mixture of 0.2 µg ERN1 (IRE1)-NanoLuc Fusion Vector (Promega, NV1321), 2 µg HaloTag-VHL Fusion Vector (Promega, N2731), 6 µl FuGENE HD Transfection Reagent (Promega, E2311), and 100 µL Opti-MEM I reduced serum medium (Gibco, #31985062) per well was incubated at room temperature for 20 min before adding to cells. For expression of IRE1 mutants, site-directed mutagenesis was performed using the ERN1-NanoLuc Fusion Vector as the DNA template, and the transfection mixture was prepared in the same way as WT IRE1. After 18 h, cells from 6-well plates were trypsinized, resuspended in Opti-MEM I reduced serum medium, and reseeded into 96-well plates (Costar, #3917), with or without the addition of HaloTag NanoBRET 618 Ligand (Promega, G9801). After 18 h of incubation, a titration of G6374 (dilutions made in Opti-MEM I reduced serum medium) was added to the cells. After 2 h of G6374 treatment, NanoBRET Nano-Glo Substrate (Promega, N1571) was added to cells. The 96-well plates were imaged by GloMax Discover Microplate Reader (Promega, GM3000) with the default “BRET: NanoBRET 618” protocol (Donor: 450 BP; Acceptor: 600 LP; Integration: 0.3 s). Data analysis was performed according to the user manual.

human IRE1.KR = target: T2, human IRE1.KR (Homo sapiens, UniProt O75460); test: Surface plasmon resonance, binary interaction with IRE1.KR; format: binding; details: SPR, immobilised IRE1.KR, 20 °C, 1 to 1 kinetic model
T2 construct: Recombinant human IRE1.KR (G547-L977) was purified using an established protocol; His6 (with TEV protease cleavage site) (N, cleaved yes); made in house; host or cells: Sf9
Protocol: (§1) All SPR experiments in this paper were recorded on a Biacore S200 instrument; all protein captures and data collection were at 20 °C.
(§2) For binary interactions with G6374: a Xantec SAHC 200 M (streptavidin) chip was inserted into the instrument and primed into running buffer [50 mM HEPES (pH 7.4), 150 mM NaCl, 0.001% Tween 20, 0.2% PEG3350, 0.25 mM TCEP, and 2% DMSO]. Biotinylated human IRE1.KR protein was captured on FC2 to 2-4000 RU, biotinylated VHL in complex with Elongin B (VHL/EloB) was captured on FC4 to 1-2000 RU, data were collected, and all referenced to FC1. Affinity for G6374 was measured using a titration series, injected from low to high with an 8-point, 2-fold dilution dose response with a top concentration of 0.5 μM in both single cycle (single cycle kinetics (SCK)) and multi cycle kinetics (MCK) formats. For MCK experiments, an association time of 45 s and a dissociation time of 200 s with a flow rate of 50 μL/min. For SCK experiments, an association time of 45 s and a dissociation time of 2000 s with a flow rate of 50 μL/min were used. All data were analyzed using Insight software (Cytiva) using a 1 to 1 kinetic binding model.

VCB (VHL:EloC:EloB) = VCB (VHL:EloC:EloB) (Homo sapiens, UniProt P40337); test: Surface plasmon resonance, binary interaction with VCB; format: binding; details: SPR, immobilised VCB, 20 °C, 1 to 1 kinetic model
Protocol: as §1, §2

IRE1 = IRE1 (Homo sapiens, UniProt O75460); test: IP-IB of K48-linked ubiquitination of endogenous IRE1 in AMO1 cells; format: cell-based; set-up: Immunoblot (IB) analysis of endogenous IRE1 depletion in AMO1 cells; endogenous in cells; host or cells: AMO1; details: 3 µM, 2 h, compared to DMSO
Protocol: Cells were lysed in buffer containing 20 mM HEPES 7.2, 150 mM NaCl, and 1% Triton X-100, supplemented with fresh protease and phosphatase inhibitors (Invitrogen, #78440), cleared by centrifugation at 12,000 × g for 10 min, and analyzed by BCA protein assay (Thermo Fisher Scientific, #23227). Equal protein amounts were loaded, separated by SDS-PAGE, electrotransferred to nitrocellulose membranes using the iBLOT2 system (Invitrogen), and blocked in 5% nonfat milk solution for 60 min. Membranes were probed with primary antibodies at 1:1000 dilution in 5% milk at 4 °C overnight. Signal was detected using appropriate horseradish peroxidase (HRP)-conjugated secondary antibodies at 1:10,000 in 5% milk at room temperature for 1–2 h. Bands were visualized by the Azure 600 western blot imaging system (Azure Biosystems). For in vitro ubiquitination assays performed with Me-Ub, bands were visualized by the Odyssey CLx Imager (LI‑COR) after incubating the blots with the IRDye 800CW (LI-COR) secondary antibodies at 1:10,000 in Intercept Blocking Buffer (LI-COR) at room temperature for 1–2 h.
IRE1.LD antibodies were conjugated to agarose beads using the AminoLink® Plus Immobilization Kit (Thermo Fisher, #44894). […]

Sequence of VCB (VHL:EloC:EloB) (P40337 whole entry): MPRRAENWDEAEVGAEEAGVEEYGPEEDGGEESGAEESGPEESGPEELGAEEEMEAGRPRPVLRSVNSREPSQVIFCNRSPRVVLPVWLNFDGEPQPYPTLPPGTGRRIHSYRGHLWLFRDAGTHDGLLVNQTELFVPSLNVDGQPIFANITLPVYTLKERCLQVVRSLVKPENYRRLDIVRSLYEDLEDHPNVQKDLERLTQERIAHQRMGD
Sequence of VCB (VHL:EloC:EloB) (Q15370 whole entry partner): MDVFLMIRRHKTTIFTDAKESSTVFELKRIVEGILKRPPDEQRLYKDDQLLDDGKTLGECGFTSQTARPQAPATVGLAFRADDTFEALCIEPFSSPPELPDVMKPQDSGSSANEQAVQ
Sequence of VCB (VHL:EloC:EloB) (Q15369 whole entry partner): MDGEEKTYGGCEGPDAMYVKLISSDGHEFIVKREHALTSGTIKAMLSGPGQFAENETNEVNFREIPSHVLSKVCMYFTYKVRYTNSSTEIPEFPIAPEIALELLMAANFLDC
T2 sequence (O75460 547-977): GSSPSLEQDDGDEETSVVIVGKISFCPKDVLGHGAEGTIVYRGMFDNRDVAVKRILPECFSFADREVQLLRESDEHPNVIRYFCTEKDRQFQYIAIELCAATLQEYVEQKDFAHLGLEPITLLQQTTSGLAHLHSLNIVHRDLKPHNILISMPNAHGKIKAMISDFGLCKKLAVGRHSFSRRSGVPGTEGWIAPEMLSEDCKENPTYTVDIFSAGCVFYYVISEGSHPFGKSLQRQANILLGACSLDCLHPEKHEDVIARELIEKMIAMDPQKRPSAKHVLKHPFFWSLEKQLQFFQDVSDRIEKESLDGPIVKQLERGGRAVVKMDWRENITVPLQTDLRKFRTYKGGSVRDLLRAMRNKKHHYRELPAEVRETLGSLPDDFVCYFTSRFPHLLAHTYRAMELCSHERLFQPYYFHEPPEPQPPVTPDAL
T1 sequence (O75460 19-977 H579A): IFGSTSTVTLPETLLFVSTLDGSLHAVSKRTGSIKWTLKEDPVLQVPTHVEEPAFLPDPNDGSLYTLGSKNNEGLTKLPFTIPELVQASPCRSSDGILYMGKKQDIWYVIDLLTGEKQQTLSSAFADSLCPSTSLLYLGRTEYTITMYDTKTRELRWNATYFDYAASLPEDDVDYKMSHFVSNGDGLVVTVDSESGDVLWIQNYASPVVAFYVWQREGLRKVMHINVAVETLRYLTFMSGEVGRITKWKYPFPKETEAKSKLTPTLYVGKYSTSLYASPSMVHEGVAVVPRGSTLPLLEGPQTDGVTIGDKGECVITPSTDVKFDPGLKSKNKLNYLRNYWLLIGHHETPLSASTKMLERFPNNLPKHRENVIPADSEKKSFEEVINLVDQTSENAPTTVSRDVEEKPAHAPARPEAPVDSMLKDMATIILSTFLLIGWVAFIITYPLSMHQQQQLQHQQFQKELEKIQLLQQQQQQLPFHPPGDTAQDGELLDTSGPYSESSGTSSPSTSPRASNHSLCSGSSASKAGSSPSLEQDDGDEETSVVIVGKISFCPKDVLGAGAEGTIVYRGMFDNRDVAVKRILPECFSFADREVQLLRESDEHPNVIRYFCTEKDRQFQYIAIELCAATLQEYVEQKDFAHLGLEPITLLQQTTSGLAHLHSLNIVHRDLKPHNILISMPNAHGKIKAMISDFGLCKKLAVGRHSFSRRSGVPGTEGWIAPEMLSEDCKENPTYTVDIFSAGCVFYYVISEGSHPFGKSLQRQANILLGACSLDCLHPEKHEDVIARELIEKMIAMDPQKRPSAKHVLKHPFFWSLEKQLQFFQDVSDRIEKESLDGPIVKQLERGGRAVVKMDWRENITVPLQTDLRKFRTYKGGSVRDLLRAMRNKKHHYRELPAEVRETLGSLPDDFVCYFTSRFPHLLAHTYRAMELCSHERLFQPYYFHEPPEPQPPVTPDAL
T1 sequence (P40337 whole entry): as the sequence (P40337 whole entry) above
T1 sequence (Q15369 whole entry partner): as the sequence (Q15369 whole entry partner) above
T1 sequence (Q15370 whole entry partner): as the sequence (Q15370 whole entry partner) above
T1 sequence (Q13617 whole entry partner): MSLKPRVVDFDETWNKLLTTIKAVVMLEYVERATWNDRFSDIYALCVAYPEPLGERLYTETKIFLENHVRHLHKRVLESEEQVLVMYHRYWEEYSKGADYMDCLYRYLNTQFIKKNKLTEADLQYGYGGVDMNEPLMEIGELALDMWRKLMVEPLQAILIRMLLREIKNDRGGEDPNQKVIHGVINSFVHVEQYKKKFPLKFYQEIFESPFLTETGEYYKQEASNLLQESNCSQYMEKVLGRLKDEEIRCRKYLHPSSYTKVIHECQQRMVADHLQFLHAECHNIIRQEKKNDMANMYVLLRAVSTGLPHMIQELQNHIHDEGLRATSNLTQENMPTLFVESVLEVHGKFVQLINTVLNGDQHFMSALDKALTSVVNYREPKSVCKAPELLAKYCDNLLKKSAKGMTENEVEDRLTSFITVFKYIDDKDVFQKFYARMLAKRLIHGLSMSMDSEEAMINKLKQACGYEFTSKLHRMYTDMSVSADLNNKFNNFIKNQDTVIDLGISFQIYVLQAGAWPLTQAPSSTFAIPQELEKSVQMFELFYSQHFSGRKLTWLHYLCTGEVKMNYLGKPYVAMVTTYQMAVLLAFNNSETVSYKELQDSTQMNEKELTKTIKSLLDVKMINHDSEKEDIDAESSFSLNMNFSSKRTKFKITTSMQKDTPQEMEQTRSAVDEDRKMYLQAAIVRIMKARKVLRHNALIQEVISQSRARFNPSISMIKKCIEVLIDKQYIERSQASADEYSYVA
T1 sequence (P62877 whole entry partner): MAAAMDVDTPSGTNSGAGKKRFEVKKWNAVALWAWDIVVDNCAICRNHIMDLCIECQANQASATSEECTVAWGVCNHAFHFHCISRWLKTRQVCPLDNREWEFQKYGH
Sequence of IRE1 (O75460 19-977): as the sequence (O75460 19-977 H579A) above, with A561H counted along it

Question: For `Cc1ncsc1-c1ccc(CNC(=O)[C@@H]2C[C@@H](O)CN2C(=O)[C@@H](NC(=O)CCCCN2CCN([C@H]3CC[C@H](Nc4ncc5ccc(=O)n(C(C)C)c5n4)CC3)CC2)C(C)(C)C)cc1` [G6374], which Dmax (IRE1 H579A) is on record?
Answer: The Dmax was 27%.

Question: What about the Kd (human IRE1.KR) of the same molecule?
Answer: The Kd was 0.56 nM.

Question: And the kd (human IRE1.KR)?
Answer: The kd was 0.0025 s⁻¹.

Question: And the kon (human IRE1.KR; read-out: ka)?
Answer: The kon was 4.95e+06 M⁻¹ s⁻¹.

Question: What about the Kd (VCB (VHL:EloC:EloB)) of the same molecule?
Answer: Its Kd is 90.2 nM.

Question: And the kd (VCB (VHL:EloC:EloB))?
Answer: Its kd is 0.0477 s⁻¹.

Question: What about the kon (VCB (VHL:EloC:EloB); read-out: ka) of the same molecule?
Answer: Its kon is 514000 M⁻¹ s⁻¹.

Question: What about the “K48-linked ubiquitination of endogenous IRE1” value (IRE1) of the same molecule?
Answer: The value was “significant increase in K48-linked ubiquitination of endogenous IRE1”.
